This note sets out measurements from patent US10487068B2, “Pyridazine derivatives as RORc modulators” (Genentech, Inc., priority 2015, dated 2019).

The target of this assay is T1, RORc ligand binding domain (Homo sapiens, UniProt P51449).
T1 sequence (P51449 269-508 limits assumed): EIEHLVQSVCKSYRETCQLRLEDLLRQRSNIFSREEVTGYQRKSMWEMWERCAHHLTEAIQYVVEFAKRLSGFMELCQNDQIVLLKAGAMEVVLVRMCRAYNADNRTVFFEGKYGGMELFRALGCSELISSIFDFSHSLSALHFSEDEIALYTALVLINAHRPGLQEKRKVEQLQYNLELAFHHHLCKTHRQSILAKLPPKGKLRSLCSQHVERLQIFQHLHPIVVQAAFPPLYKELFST
Nature of the assay: In Vitro RORc Ligand Binding Assay. The settings on record: RORc IC50, radioligand 25-[3H]hydroxycholesterol 6 nM; 0.6 ug/mL RORc receptor; 3 h at 25° C.

What is called IC50 is the point on the concentration scale where inhibition reaches its midpoint. Lower therefore signals higher potency.

In turn, `CC1(C)[C@H]2CC[C@]1(c1cncc(C(=O)N[C@@H]3COC(=O)C3)n1)c1nnc(-c3c(F)cccc3F)cc12` [Example 376, 6-((5R,8S)-3-(2,6-difluorophenyl)-9,9-dimethyl-5,6,7,8-tetrahydro-5,8-methanocinnolin-8-yl)-N-((S)-5-oxotetrahydrofuran-3-yl)pyrazine-2-carboxamide] had an IC50 of 27.2 nM.

In the case of `CCC(O)(CC)c1coc(-c2cncc([C@@]34CC[C@@H](c5cc(-c6c(F)cccc6F)nnc53)C4(C)C)n2)n1` [Example 377, 3-(2-(6-((5R,8S)-3-(2,6-difluorophenyl)-9,9-dimethyl-5,6,7,8-tetrahydro-5,8-methanocinnolin-8-yl)pyrazin-2-yl)oxazol-4-yl)pentan-3-ol], the IC50 worked out at 5.3 nM.

`C[C@H](O)c1coc(-c2cncc([C@@]34CC[C@@H](c5cc(-c6c(F)cccc6F)nnc53)C4(C)C)n2)n1` [Example 378, (S)-1-(2-(6-((5R,8S)-3-(2,6-difluorophenyl)-9,9-dimethyl-5,6,7,8-tetrahydro-5,8-methanocinnolin-8-yl)pyrazin-2-yl)oxazol-4-yl)ethanol] displayed an IC50 of 6.8 nM.

As for `C[C@@H](O)c1coc(-c2cncc([C@@]34CC[C@@H](c5cc(-c6c(F)cccc6F)nnc53)C4(C)C)n2)n1` [Example 379, (R)-1-(2-(6-((5R,8S)-3-(2,6-difluorophenyl)-9,9-dimethyl-5,6,7,8-tetrahydro-5,8-methanocinnolin-8-yl)pyrazin-2-yl)oxazol-4-yl)ethanol], the IC50 came to 7.4 nM.

Consider `CC1(C)[C@H]2CC[C@]1(c1cncc(-c3nc(CC#N)co3)n1)c1nnc(-c3c(F)cccc3F)cc12` [Example 380, 2-(2-(6-((5R,8S)-3-(2,6-difluorophenyl)-9,9-dimethyl-5,6,7,8-tetrahydro-5,8-methanocinnolin-8-yl)pyrazin-2-yl)oxazol-4-yl)acetonitrile], for which the IC50 was found to be 6.1 nM.

As for `CC1(C)[C@@H]2CC[C@@]1(c1cncc(-n3ccc(CO)n3)n1)c1nnc(-c3c(F)cccc3F)cc12` [Example 381, (1-(6-((5S,8R)-3-(2,6-difluorophenyl)-9,9-dimethyl-5,6,7,8-tetrahydro-5,8-methanocinnolin-8-yl)pyrazin-2-yl)-1H-pyrazol-3-yl)methanol], the IC50 is 6 nM.

Compound `CC[C@@H](O)c1coc(-c2cncc([C@@]34CC[C@@H](c5cc(-c6c(F)cccc6F)nnc53)C4(C)C)n2)n1` [Example 382, (R)-1-(2-(6-((5R,8S)-3-(2,6-difluorophenyl)-9,9-dimethyl-5,6,7,8-tetrahydro-5,8-methanocinnolin-8-yl)pyrazin-2-yl)oxazol-4-yl)propan-1-ol] displayed an IC50 of 7.3 nM.

`CC[C@H](O)c1coc(-c2cncc([C@@]34CC[C@@H](c5cc(-c6c(F)cccc6F)nnc53)C4(C)C)n2)n1` [Example 383, (S)-1-(2-(6-((5R,8S)-3-(2,6-difluorophenyl)-9,9-dimethyl-5,6,7,8-tetrahydro-5,8-methanocinnolin-8-yl)pyrazin-2-yl)oxazol-4-yl)propan-1-ol] yielded an IC50 of 8.2 nM.

As for `CC1(C)[C@H]2CC[C@]1(c1cncc(-c3nc(CC(N)=O)co3)n1)c1nnc(-c3c(F)cccc3F)cc12` [Example 384, 2-(2-(6-((5R,8S)-3-(2,6-difluorophenyl)-9,9-dimethyl-5,6,7,8-tetrahydro-5,8-methanocinnolin-8-yl)pyrazin-2-yl)oxazol-4-yl)acetamide], the IC50 is 6.9 nM.

On to `CC1(C)[C@H]2CC[C@]1(c1ccnc(-c3cccnc3O)n1)c1nnc(-c3c(F)cccc3F)cc12` [Example 385], for which the IC50 was 19.7 nM.

`CC1(C)[C@H]2CC[C@]1(c1ccnc(-c3cc[nH]c(=O)c3)n1)c1nnc(-c3c(F)cccc3F)cc12` [Example 386] yielded an IC50 of 9.8 nM.

In turn, `CC(C)(O)c1coc(-c2cncc([C@]34CC[C@H](c5cc(-c6c(F)cccc6F)nnc53)C4(C)C)n2)n1` [Example 387, 2-(2-(6-((5S,8R)-3-(2,6-difluorophenyl)-9,9-dimethyl-5,6,7,8-tetrahydro-5,8-methanocinnolin-8-yl)pyrazin-2-yl)oxazol-4-yl)propan-2-ol] yielded an IC50 of 8 nM.

`CC(C)(O)c1ncc(-c2nccc([C@@]34CC[C@@H](c5cc(-c6c(F)cccc6F)nnc53)C4(C)C)n2)cn1` [Example 388]: the IC50 amounted to 7.3 nM.

As for `Cc1ncn(-c2cc([C@@]34CC[C@@H](c5cc(-c6c(F)cccc6F)nnc53)C4(C)C)cnn2)n1` [Example 389, (5R,8S)-3-(2,6-difluorophenyl)-9,9-dimethyl-8-(6-(3-methyl-1H-1,2,4-triazol-1-yl)pyridazin-4-yl)-5,6,7,8-tetrahydro-5,8-methanocinnoline], the IC50 came out at 91.2 nM.

The compound `Cc1ncnn1-c1cc([C@@]23CC[C@@H](c4cc(-c5c(F)cccc5F)nnc42)C3(C)C)cnn1` [Example 390, (5R,8S)-3-(2,6-difluorophenyl)-9,9-dimethyl-8-(6-(5-methyl-1H-1,2,4-triazol-1-yl)pyridazin-4-yl)-5,6,7,8-tetrahydro-5,8-methanocinnoline] registered an IC50 of 317 nM.

The compound `Cc1cc([C@@]23CC[C@@H](c4cc(-c5c(F)cccc5F)nnc42)C3(C)C)nc(N)n1` [Example 391] showed an IC50 of 44.6 nM.

Turning to `CC(C)(O)c1ccc(-c2cncc([C@@]34CC[C@@H](c5cc(-c6c(F)cccc6F)nnc53)C4(C)C)n2)cn1` [Example 392, 2-(5-(6-((5R,8S)-3-(2,6-difluorophenyl)-9,9-dimethyl-5,6,7,8-tetrahydro-5,8-methanocinnolin-8-yl)pyrazin-2-yl)pyridin-2-yl)propan-2-ol], the IC50 was determined as 5.5 nM.

Compound `CC(C)(O)c1cc(-c2cncc([C@@]34CC[C@@H](c5cc(-c6c(F)cccc6F)nnc53)C4(C)C)n2)ccn1` [Example 393, 2-(4-(6-((5R,8S)-3-(2,6-difluorophenyl)-9,9-dimethyl-5,6,7,8-tetrahydro-5,8-methanocinnolin-8-yl)pyrazin-2-yl)pyridin-2-yl)propan-2-ol] came in with an IC50 of 5.6 nM.

Consider `CC(C)(O)c1ncc(-c2cncc([C@@]34CC[C@@H](c5cc(-c6c(F)cccc6F)nnc53)C4(C)C)n2)cn1` [Example 394, 2-(5-(6-((5R,8S)-3-(2,6-difluorophenyl)-9,9-dimethyl-5,6,7,8-tetrahydro-5,8-methanocinnolin-8-yl)pyrazin-2-yl)pyrimidin-2-yl)propan-2-ol], for which the IC50 was 9.1 nM.

`CC1(C)[C@H]2CC[C@]1(c1cncc(-c3ccc(=O)[nH]c3)n1)c1nnc(-c3c(F)cccc3F)cc12` [Example 395, 5-(6-((5R,8S)-3-(2,6-difluorophenyl)-9,9-dimethyl-5,6,7,8-tetrahydro-5,8-methanocinnolin-8-yl)pyrazin-2-yl)pyridin-2(1H)-one] came in with an IC50 of 4.3 nM.

`CC(C)(O)c1coc(-c2cncc([C@@]34CC[C@@H](c5cc(-c6ccccc6F)nnc53)C4(C)C)n2)n1` [Example 396, 2-(2-(6-((5R,8S)-3-(2-fluorophenyl)-9,9-dimethyl-5,6,7,8-tetrahydro-5,8-methanocinnolin-8-yl)pyrazin-2-yl)oxazol-4-yl)propan-2-ol]: the IC50 came out at 4.8 nM.

For the compound `Cc1oc(-c2cncc([C@@]34CC[C@@H](c5cc(-c6c(F)cccc6F)nnc53)C4(C)C)n2)nc1C(C)(C)O` [Example 397, 2-(2-(6-((5R,8S)-3-(2,6-difluorophenyl)-9,9-dimethyl-5,6,7,8-tetrahydro-5,8-methanocinnolin-8-yl)pyrazin-2-yl)-5-methyloxazol-4-yl)propan-2-ol], the IC50 came to 10.4 nM.

Regarding `CC1(C)[C@H]2CC[C@]1(c1cncc(C3(O)COC3)n1)c1nnc(-c3c(F)cccc3F)cc12` [Example 398, 3-(6-((5R,8S)-3-(2,6-difluorophenyl)-9,9-dimethyl-5,6,7,8-tetrahydro-5,8-methanocinnolin-8-yl)pyrazin-2-yl)oxetan-3-ol], the IC50 is 12.5 nM.

With `CC1(C)[C@H]2CC[C@]1(c1cncc(-c3cn[nH]n3)n1)c1nnc(-c3c(F)cccc3F)cc12` [Example 399], the IC50 was found to be 6.4 nM.

Compound `CC(C)(O)c1cnc(-c2cncc([C@@]34CC[C@@H](c5cc(-c6c(F)cccc6F)nnc53)C4(C)C)n2)cn1` [Example 400, 2-(6′-((5R,8S)-3-(2,6-difluorophenyl)-9,9-dimethyl-5,6,7,8-tetrahydro-5,8-methanocinnolin-8-yl)-[2,2′-bipyrazin]-5-yl)propan-2-ol] registered an IC50 of 8.7 nM.

`CC1(C)[C@H]2CC[C@]1(c1cncc(-c3cnc(=O)[nH]c3)n1)c1nnc(-c3c(F)cccc3F)cc12` [Example 401, 5-(6-((5R,8S)-3-(2,6-difluorophenyl)-9,9-dimethyl-5,6,7,8-tetrahydro-5,8-methanocinnolin-8-yl)pyrazin-2-yl)pyrimidin-2(1H)-one] displayed an IC50 of 14.7 nM.

In turn, `CC1(C)[C@H]2CC[C@]1(c1cncc(-c3ccc(OCC(N)=O)nc3)n1)c1nnc(-c3c(F)cccc3F)cc12` [Example 402, 2-((5-(6-((5R,8S)-3-(2,6-difluorophenyl)-9,9-dimethyl-5,6,7,8-tetrahydro-5,8-methanocinnolin-8-yl)pyrazin-2-yl)pyridin-2-yl)oxy)acetamide] returned an IC50 of 8.1 nM.

`CC1(C)[C@H]2CC[C@]1(c1ccnc(-c3ccc(N)nc3)n1)c1nnc(-c3c(F)cccc3F)cc12` [Example 403]: the IC50 amounted to 6.8 nM.

The compound `CC1(C)[C@H]2CC[C@]1(c1ccnc(-c3ccnc(C(N)=O)c3)n1)c1nnc(-c3c(F)cccc3F)cc12` [Example 404] showed an IC50 of 9.2 nM.

With `CC1(C)[C@H]2CC[C@]1(c1cncc(-c3cnn(CC(N)=O)c3)n1)c1nnc(-c3c(F)cccc3F)cc12` [Example 405, 2-(4-(6-((5R,8S)-3-(2,6-difluorophenyl)-9,9-dimethyl-5,6,7,8-tetrahydro-5,8-methanocinnolin-8-yl)pyrazin-2-yl)-1H-pyrazol-1-yl)acetamide], the IC50 came to 7.7 nM.
